Measurements reported in PubChem BioAssay (NCI).
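96-well plates; 48 h exposure; 5 concentrations. Endpoints by linear interpolation between flanking doses. Not reached: highest tested concentration assigned. At the TGI there is no net growth.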

How the values were obtained:
Assay in all cases: NCI-60 cell line screen, 48 h
[1] = tested on: SN12C renal
[2] = tested on: LOX IMVI melanoma
[3] = tested on: SW-620 colon
[4] = tested on: UACC-257 melanoma
[5] = tested on: MALME-3M melanoma
[6] = tested on: PC-3 prostate
[7] = tested on: NCI-H522 lung
[8] = tested on: SK-MEL-5 melanoma
[9] = tested on: OVCAR-4 ovarian
[10] = tested on: NCI/ADR-RES ovarian
[11] = tested on: KM12 colon

Compound | TGI [1] [µM] | TGI [2] [µM] | TGI [3] [µM] | TGI [4] [µM] | TGI [5] [µM] | TGI [6] [µM] | TGI [7] [µM] | TGI [8] [µM] | TGI [9] [µM] | TGI [10] [µM] | TGI [11] [µM]
CC(=O)Nc1ccc2cc3c(nc2n1)c1cccnc1n3S(=O)(=O)c1ccccc1 | > 100 | > 100 | > 100 | > 100 | > 100 | > 100 | > 100 | > 100 | > 100 | > 100 | > 100
Oc1ccccc1/C=N/N1C(=S)N(c2ccccc2)C(=Nc2ccccc2)C1=Nc1ccccc1 | 28.2 | 36.2 | > 54.1 | > 68 | > 54.6 | 47.2 | 12.6 | 40.9 | 15.2 | 41 | > 100
O=C1CSC2(CC(/C=C/c3ccccc3[N+](=O)[O-])=NN2c2cccc(S(=O)(=O)O)c2)N1c1nc2ccccc2s1 (stereo unspecified) | 54.9 | 34.5 | > 75 | > 75 | > 75 | 35.4 | 22.1 | > 75 | 35.3 | 50.7 | 27
COC(=O)CC(c1ccccc1)C(C#N)(OP1(=O)OC(c2ccccc2)C(C)N1C)c1ccccc1 (stereo unspecified) | > 100 | > 100 | > 100 | > 100 | > 100 | > 100 | > 100 | 39.8 | > 100 | > 100 | > 100
NC(=O)NC(=O)c1cccc(C(=O)NC(N)=O)n1 | > 100 | > 100 | > 100 | > 100 | > 100 | > 100 | > 100 | > 100 | > 100 | > 100 | > 100
O=C1CCCC1C(O)(C(F)(F)Cl)C(F)(F)Cl (stereo unspecified) | > 10 | > 10 | > 10 | > 10 | > 10 | > 10 | > 10 | > 10 | > 10 | > 10 | > 10
O=C(CCCN1CCC(Nc2ccc(F)cc2)(c2nnnn2C2CCCCC2)CC1)c1ccc(F)cc1 | > 100 | > 100 | > 100 | 57.3 | > 100 | 51.8 | 29.8 | 42 | 25.5 | 46.9 | 13.3
CCN(CC)C(=O)N1CN(c2ccccc2)C2(CCN(CCCC3(c4ccc(F)cc4)OCCO3)CC2)C1=O | 32.8 | 26.2 | 40.4 | 26.3 | 36.5 | 34.9 | 30.2 | 26.4 | > 100 | 46.4 | 31.1
CCCCCC(=O)OC[n+]1ccc(-c2c(COC(=O)NC(C)C)c(COC(=O)NC(C)C)c3n2CCC3)cc1 | > 100 | > 100 | > 100 | > 100 | > 100 | > 100 | > 100 | > 100 | > 100 | > 100 | > 100
O=C1C=C(NCCc2ccc(O)cc2)C(=O)C=C1NCCc1ccc(O)cc1 | > 100 | > 100 | > 100 | > 100 | > 100 | > 100 | > 100 | > 100 | > 100 | > 100 | > 100
COc1ccc([C@H]2C=C(c3cc(F)c(Cl)cc3Cl)N=c3s/c(=C\c4ccc(-c5ccc(Cl)cc5Cl)o4)c(=O)n32)cc1 | > 100 | > 100 | > 100 | > 100 | > 100 | > 100 | > 100 | > 100 | > 100 | > 100 | > 100
N#C[C@H](c1nc2ccccc2[nH]1)c1nc2ccccc2nc1Cl | 30.9 | 29.3 | 29.5 | > 62.5 | 31.7 | > 52.1 | 16.2 | 36 | > 53.9 | > 100 | 17.1
O=[N+]([O-])C(=C(\Cl)NCCO)/C(Cl)=C(/Cl)Br | 5.77 | 2.19 | 2.68 | 4.4 | 3.8 | 7.68 | 2.88 | 7.3 | 3.01 | 7.42 | 17.6
CCOC(=O)C1=CN(Cc2ccccc2)C2ON=C(c3ccc(Cl)cc3)C2C1 (stereo unspecified) | > 65.4 | > 74.2 | > 65.7 | > 66.8 | > 71.8 | > 53.5 | > 49.6 | > 65 | > 77.8 | > 72.3 | > 66.5
C=CCOC1=C(OC(C)=O)C(C2COC(C)(C)O2)OC1=O (stereo unspecified) | 70.8 | 24 | 32.7 | 39.7 | 35.1 | > 100 | 5.45 | 33.6 | 45.9 | > 100 | 44.3
O=C(O)COc1cccc2ccccc(=O)c12 | > 100 | > 100 | > 100 | > 100 | > 100 | > 100 | > 100 | > 100 | > 100 | > 100 | > 100
CCOC(=O)CCNC(=O)c1cc(C)cc2c1Oc1c(cc(C)cc1C(=O)NCCC(=O)OCC)S2 | > 100 | > 100 | > 100 | > 100 | > 100 | > 100 | > 100 | > 100 | > 100 | > 100 | > 100
CSc1c(C#N)c(=O)n(N)c2n[nH]c(C)c12 | > 100 | > 100 | > 100 | > 100 | > 100 | > 100 | > 100 | > 100 | > 100 | > 100 | > 100
CN(C)C=Nc1cccc2c1NSN2 | > 100 | > 100 | > 100 | > 100 | > 100 | > 100 | > 100 | > 100 | > 100 | > 100 | > 100
O=c1[nH]nc(-c2ccccc2)c2[nH]c3c(c12)CCCc1ccccc1-3 | 35.8 | 33.7 | 50.8 | 44.5 | 30.9 | 58.5 | 27.1 | 26.5 | 33.6 | 32.5 | 23.5
CCN(CC)CCCNc1c2cc(OC)ccc2nc2cccc([N+](=O)[O-])c12 | 0.402 | 0.196 | 0.339 | 0.416 | 0.263 | 0.224 | 0.0284 | 0.238 | 0.0779 | 1.51 | 0.347
